From the supplement of paper PMC5908809

Assays:
[1] = test system: normal primary NK cells, pool 1 (3 donors), resting (IL-2 0 ng/mL); assay: percent inhibition of viability; higher = more inhibition; conditions: 72 h
[2] = test system: normal primary NK cells, pool 3 (3 donors) (IL-2 2.5 ng/mL); assay: as above; conditions: 72 h
NK-YS (IL-2 2.5 ng/mL) [3] = assay: as above; conditions: 72 h
KAI3 (IL-2 2.5 ng/mL) [4] = assay: as above; conditions: 72 h
SNK-6 (IL-2 2.5 ng/mL) [5] = assay: as above; conditions: 72 h
[6] = test system: normal primary NK cells, pool 1 (3 donors) (IL-2 2.5 ng/mL); assay: as above; conditions: 72 h
IMC-1 (IL-2 20 ng/mL) [7] = assay: as above; conditions: 72 h
NK-92 (IL-2 2.5 ng/mL) [8] = assay: as above; conditions: 72 h
[9] = test system: normal primary NK cells, pool 2 (3 donors) (IL-2 2.5 ng/mL); assay: as above; conditions: 72 h
DERL-7 (IL-2 2.5 ng/mL) [10] = assay: as above; conditions: 72 h
YT (IL-2 2.5 ng/mL) [11] = assay: as above; conditions: 72 h
NKL (IL-2 2.5 ng/mL) [12] = assay: as above; conditions: 72 h
KHYG-1 (IL-2 2.5 ng/mL) [13] = assay: as above; conditions: 72 h
[14] = test system: normal NK cells expanded with K562-aAPC; assay: drug sensitivity score (DSS) (DSS units); higher = more sensitive; extreme values may be limits of the assay; conditions: 72 h; IL-2 2.5 ng/mL
Description: (§1)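 Drug sensitivity and resistance testing on K562-aAPC-expanded normal NK cells: 5 concentrations (10-fold steps over a 10,000-fold range), 72 h at 37 °C, viability by CellTiter-Glo normalised to DMSO and benzethonium chloride controls; DSS from the fitted curve.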

[15] = test system: normal NK cells expanded with K562-aAPC; assay: percent inhibition of viability; higher = more inhibition; conditions: 72 h, IL-2 2.5 ng/mL
Description: as §1

[16] = test system: normal primary NK cells, pool 1 (3 donors), resting (IL-2 0 ng/mL); assay: drug sensitivity score (DSS) (DSS units); higher = more sensitive; extreme values may be limits of the assay; conditions: 72 h
[17] = test system: normal primary NK cells, pool 3 (3 donors) (IL-2 2.5 ng/mL); assay: as above; conditions: 72 h
NK-YS (IL-2 2.5 ng/mL) [18] = assay: as above; conditions: 72 h
KAI3 (IL-2 2.5 ng/mL) [19] = assay: as above; conditions: 72 h
SNK-6 (IL-2 2.5 ng/mL) [20] = assay: as above; conditions: 72 h
[21] = test system: normal primary NK cells, pool 1 (3 donors) (IL-2 2.5 ng/mL); assay: as above; conditions: 72 h
IMC-1 (IL-2 20 ng/mL) [22] = assay: as above; conditions: 72 h
NK-92 (IL-2 2.5 ng/mL) [23] = assay: as above; conditions: 72 h
[24] = test system: normal primary NK cells, pool 2 (3 donors) (IL-2 2.5 ng/mL); assay: as above; conditions: 72 h
DERL-7 (IL-2 2.5 ng/mL) [25] = assay: as above; conditions: 72 h
YT (IL-2 2.5 ng/mL) [26] = assay: as above; conditions: 72 h
NKL (IL-2 2.5 ng/mL) [27] = assay: as above; conditions: 72 h
KHYG-1 (IL-2 2.5 ng/mL) [28] = assay: as above; conditions: 72 h

Cc1ccc(-n2nc(C(C)(C)C)cc2NC(=O)Nc2ccc(OCCN3CCOCC3)c3ccccc23)cc1 [Doramapimod] (max concentration tested 10000 nM)
percent inhibition of viability [%]
Conditions	1 nM	10 nM	100 nM	1000 nM	10000 nM
DERL-7 (IL-2 2.5 ng/mL) [10]	-1.24	0.45	-6.35	0.4	31.3
IMC-1 (IL-2 20 ng/mL) [7]	-7.13	-0.74	1.31	8.39	27.3
KAI3 (IL-2 2.5 ng/mL) [4]	-7.62	9.59	18.9	43.5	68
KHYG-1 (IL-2 2.5 ng/mL) [13]	-0.62	4.98	0.58	7.1	56.5
NK-92 (IL-2 2.5 ng/mL) [8]	13	11	8.99	11.7	71.5
NK-YS (IL-2 2.5 ng/mL) [3]	-8.49	3.68	5.33	24.4	63.3
NKL (IL-2 2.5 ng/mL) [12]	-7.33	-0.1	12	80.7	98.6
SNK-6 (IL-2 2.5 ng/mL) [5]	-8.06	6.04	-5.96	-39.3	6.22
YT (IL-2 2.5 ng/mL) [11]	1.11	9.26	7.83	16.7	45
[1]	0.09	-4.02	-3.55	3.17	94.7
[2]	-11.6	-1.56	4.57	2.15	85.2
[6]	2.74	-0.9	-0.42	-10.6	91.3
[9]	-9.43	-4.09	6.14	-0.89	85.1
[15]	-6.83	-0.74	-1.74	16.5	52.8

Conditions	drug sensitivity score
DERL-7 (IL-2 2.5 ng/mL) [25]	1.44
IMC-1 (IL-2 20 ng/mL) [22]	2.23
KAI3 (IL-2 2.5 ng/mL) [19]	10.7
KHYG-1 (IL-2 2.5 ng/mL) [28]	4.24
NK-92 (IL-2 2.5 ng/mL) [23]	5.9
NK-YS (IL-2 2.5 ng/mL) [18]	6.27
NKL (IL-2 2.5 ng/mL) [27]	16.4
SNK-6 (IL-2 2.5 ng/mL) [20]	0
YT (IL-2 2.5 ng/mL) [26]	3.98
[14]	5.25
[16]	5.69
[17]	5.02
[21]	4.39
[24]	4.66

CCCCCCCCc1ccc(CCC(N)(CO)CO)cc1 [Fingolimod] (max concentration tested 10000 nM)
percent inhibition of viability [%]
Conditions	1 nM	10 nM	100 nM	1000 nM	10000 nM
DERL-7 (IL-2 2.5 ng/mL) [10]	2.13	-1.97	5.25	14.2	100
IMC-1 (IL-2 20 ng/mL) [7]	1.04	3.67	4.21	10.1	101
KAI3 (IL-2 2.5 ng/mL) [4]	-5.76	2.36	-1.55	21.5	101
KHYG-1 (IL-2 2.5 ng/mL) [13]	-0.79	1.01	0.07	10.2	102
NK-92 (IL-2 2.5 ng/mL) [8]	1.29	3.97	7.28	-5.13	103
NK-YS (IL-2 2.5 ng/mL) [3]	-1.37	0.63	1.86	10.4	102
NKL (IL-2 2.5 ng/mL) [12]	-3	6.8	9.6	30.1	101
SNK-6 (IL-2 2.5 ng/mL) [5]	2.86	25.2	18.7	13.7	101
YT (IL-2 2.5 ng/mL) [11]	1.77	4.72	1.22	8.33	101
[1]	0.28	-1.75	-1.3	-3.49	100
[2]	-17.7	-6.84	5.41	-5.02	100
[6]	-0.71	-3.03	-0.07	8.48	101
[9]	-5.21	-6.36	4.8	16	101
[15]	-2.7	-1.12	2.03	16.4	101

Conditions	drug sensitivity score
DERL-7 (IL-2 2.5 ng/mL) [25]	7.91
IMC-1 (IL-2 20 ng/mL) [22]	7.23
KAI3 (IL-2 2.5 ng/mL) [19]	8.95
KHYG-1 (IL-2 2.5 ng/mL) [28]	7.28
NK-92 (IL-2 2.5 ng/mL) [23]	5.44
NK-YS (IL-2 2.5 ng/mL) [18]	7.3
NKL (IL-2 2.5 ng/mL) [27]	9.92
SNK-6 (IL-2 2.5 ng/mL) [20]	7.85
YT (IL-2 2.5 ng/mL) [26]	6.91
[14]	8.27
[16]	5.33
[17]	5.22
[21]	6.91
[24]	8.2
